From the NIST ThermoML archive (doi:10.1021/je034208m)

Test: xn = mol fraction of the nth substance listed
Conditions: 101.33 kPa, Liquid; for speed of sound: Sing-around technique in a fixed-path interferometer

CCCC(C)O (centres undefined) [pentan-2-ol] + CCCCCCCC
Conditions	mass density, 293.15 K [kg/m3]	mass density, 298.15 K [kg/m3]	mass density, 303.15 K [kg/m3]	speed of sound, 293.15 K [m/s]	speed of sound, 298.15 K [m/s]	speed of sound, 303.15 K [m/s]	viscosity, 293.15 K [mPa·s]	viscosity, 298.15 K [mPa·s]	viscosity, 303.15 K [mPa·s]
x1 = 0.0509	705.58	701.48	697.35	1190	1170	1149	0.548	0.517	0.486
x1 = 0.105	709.15	705.03	700.87	1189	1169	1148	0.566	0.53	0.498
x1 = 0.1853	714.98	710.84	706.65	1188	1168	1147	0.598	0.56	0.525
x1 = 0.2976	723.78	719.63	715.43	1188	1168	1147	0.658	0.613	0.572
x1 = 0.3968	732.4	728.24	724.03	1189	1169	1149	0.732	0.678	0.629
x1 = 0.4953	741.91	737.73	733.5	1192	1172	1153	0.841	0.77	0.709
x1 = 0.5965	752.73	748.53	744.29	1198	1178	1158	1.008	0.915	0.826
x1 = 0.6993	764.97	760.76	756.5	1207	1187	1167	1.296	1.147	1.022
x1 = 0.7971	777.92	773.74	769.48	1218	1199	1179	1.727	1.495	1.307
x1 = 0.8997	792.82	788.69	784.49	1233	1214	1195	2.531	2.133	1.821
x1 = 0.9509	800.83	796.75	792.59	1242	1223	1204	3.19	2.635	2.215
x1 = 1	809.04	805.01	800.9	1250	1232	1214	4.001	3.273	2.708

CCCC(C)O (centres undefined) [pentan-2-ol] + CCCCCCCCCC
Conditions	mass density, 293.15 K [kg/m3]	mass density, 298.15 K [kg/m3]	mass density, 303.15 K [kg/m3]	speed of sound, 293.15 K [m/s]	speed of sound, 298.15 K [m/s]	speed of sound, 303.15 K [m/s]	viscosity, 293.15 K [mPa·s]	viscosity, 298.15 K [mPa·s]	viscosity, 303.15 K [mPa·s]
x1 = 0.0487	731.62	727.76	723.89	1251	1231	1211	0.914	0.845	0.779
x1 = 0.0987	733.41	729.53	725.62	1248	1228	1209	0.912	0.844	0.782
x1 = 0.2043	738.14	734.23	730.28	1243	1223	1204	0.956	0.882	0.81
x1 = 0.2996	742.88	738.94	734.96	1239	1220	1200	0.989	0.909	0.842
x1 = 0.4006	748.67	744.7	740.69	1236	1216	1197	1.084	0.99	0.883
x1 = 0.5017	755.31	751.3	747.25	1233	1214	1194	1.149	1.044	0.952
x1 = 0.6002	762.88	758.83	754.73	1232	1213	1193	1.3	1.166	1.053
x1 = 0.6985	771.67	767.58	763.44	1233	1214	1194	1.531	1.352	1.201
x1 = 0.7992	782.4	778.29	774.12	1237	1217	1198	1.914	1.646	1.439
x1 = 0.8996	794.55	790.46	786.3	1242	1223	1204	2.626	2.214	1.888
x1 = 0.95	801.5	797.43	793.28	1246	1228	1209	3.205	2.651	2.244
x1 = 1	809.04	805.01	800.9	1250	1232	1214	4.001	3.273	2.708

CCCC(C)O (centres undefined) [pentan-2-ol] + CCCCCCCCCCCC
Conditions	mass density, 293.15 K [kg/m3]	mass density, 298.15 K [kg/m3]	mass density, 303.15 K [kg/m3]	speed of sound, 293.15 K [m/s]	speed of sound, 298.15 K [m/s]	speed of sound, 303.15 K [m/s]	viscosity, 293.15 K [mPa·s]	viscosity, 298.15 K [mPa·s]	viscosity, 303.15 K [mPa·s]
x1 = 0.049	749.65	745.96	742.26	1294	1275	1256	1.443	1.316	1.206
x1 = 0.0965	750.77	747.03	743.3	1291	1271	1252	1.441	1.312	1.201
x1 = 0.2065	753.81	750.05	746.25	1284	1265	1245	1.438	1.307	1.194
x1 = 0.2993	756.86	753.06	749.23	1278	1259	1240	1.465	1.33	1.211
x1 = 0.3986	760.67	756.84	752.97	1271	1252	1233	1.499	1.355	1.231
x1 = 0.5046	765.6	761.71	757.79	1265	1246	1227	1.563	1.406	1.27
x1 = 0.5974	770.7	766.77	762.79	1260	1241	1222	1.667	1.487	1.338
x1 = 0.7026	777.76	773.76	769.72	1255	1236	1217	1.865	1.635	1.447
x1 = 0.8001	785.82	781.77	777.66	1253	1233	1214	2.205	1.9	1.652
x1 = 0.8994	795.9	791.84	787.71	1251	1232	1213	2.786	2.347	1.998
x1 = 0.9497	802.07	798.02	793.89	1251	1232	1213	3.267	2.717	2.284
x1 = 1	809.04	805	800.9	1250	1232	1214	4.001	3.273	2.708
